Literature values as cited in US20230165862A1, “CANCER THERAPY USING 3,5-DISUBSTITUTED BENZENE ALKYNYL COMPOUND AND MEK INHIBITOR” (TAIHO PHARMACEUTICAL CO., LTD., priority 2020, published 2023).

How the values were obtained:
[1] = human; 30 mg or more per dose twice daily
[2] = human; 0.5 mg or more per dose once daily
[3] = human; steady-state PK, dose of 40 mg in Stage 1 (21/7), once daily

For `Cn1cnc2c(F)c(Nc3ccc(Br)cc3F)c(C(=O)NOCCO)cc21` [Binimetinib, 5-[(4-bromofluorophenyl)amino]-4-fluoro-N-(2-hydroxyethoxy)-1-methyl-1H-benzimidazole-6-carboxamide], the “Time a blood concentration of 18.45 ng/mL (corresponds to 100 nM) is achieved” value [1] is given as “more than 8 hours”.

For `CC(=O)Nc1cccc(-n2c(=O)n(C3CC3)c(=O)c3c(Nc4ccc(I)cc4F)n(C)c(=O)c(C)c32)c1` [Trametinib, N-(3-{3-cyclopropyl-5-[(2-fluoro-4-iodophenyl)amino]-6,8-dimethyl-2,4,7-trioxo-3,4,6,7-tetrahydropyrido[4,3-d]pyrimidin-1(2H)-yl}phenyl)acetamide], the “Time a blood concentration of 1.3 ng/mL (corresponds to 10 nM) is achieved” value [2] is listed as no less than 24 h.

In the case of `O=C(c1ccc(F)c(F)c1Nc1ccc(I)cc1F)N1CC(O)([C@@H]2CCCCN2)C1` [Cobimetinib, [3,4-difluoro-2-[(2-fluoro-4-iodophenyl)amino]phenyl][3-hydroxy-3-[(2S)-2-piperidinyl]-1-azetidinyl]methanone], the “Time a concentration higher than 53 ng/mL (corresponds to 100 nM) is achieved” value [3] is given as 14 h.
